Measurements: patent US20180072770A1, “Influenza Virus Binding Peptides” (priority 2014, published 2018)
No end group written: not given here.

Assays:
A/NewYork/55/2004 H3N2 = type: binding, influenza A virus
A/California/7/2009 H1N1 = type: binding, influenza A virus
A/Aichi/2/68 H3N2 (X31) = type: binding, influenza A virus
[1] = test system: X31 virus (A/Aichi/2/68 H3N2); test: Inhibition of influenza A virus binding to fetuin (SPR)
A/Aichi/2/68 H3N2 [2] = type: cell-based, influenza A virus
[3] = test system: A/Mute swan/Germany/R901/06 K3141 H7N1
A/Panama/2007/1999 H3N2 = type: cell-based, influenza A virus; details: read-out: Mean Ki(HAI)
influenza A virus = type: cell-based
A/Aichi/2/68 H3N2 [4] = test: Viral fusion with human erythrocyte ghosts (R18 dequenching); type: cell-based, influenza A virus; details: concentration-dependent, maximum; pH 5; FIG. 7
A/Aichi/2/68 H3N2 [5] = test: Infectivity inhibition assay (MTS, MDCK II cells); type: cell-based, influenza A virus; details: MOI 0.05, 24 h, concentration dependent, maximum, FIG. 8
[6] = test system: A/Mute swan/Germany/R901/06 H7N1
A/Aichi/2/68 H3N2 [7] = test system: A/Aichi/2/68 H3N2
[8] = test system: influenza A virus strains H3N2 (X31), H7N1, H1N1, H5N1, H3N2 (Victoria), H3N2 (NY); type: binding

SEQ ID NO:76 (FYDYDRFY; Synthetically produced peptide)
virus binding (SPR) (A/NewYork/55/2004 H3N2): specifically binds
virus binding (SPR) (A/California/7/2009 H1N1): does not bind
virus binding (SPR) (A/Aichi/2/68 H3N2 (X31)): does not bind

KKKKFYGYDVFF-NH2 [SEQ ID NO:28]
IC50 ([1]; A/Aichi/2/68 H3N2 (X31), SPR, read-out: Inhibition of binding to fetuin (IC50, RB)): 20 µM
fold lower IC50,RB in comparison to reference peptide SEQ ID NO:1 ([1]; X31): about 4.5 fold
inhibition of viral attachment to single red blood cells (A/Aichi/2/68 H3N2 [2]): up to 50%
factor of enhanced binding capability in comparison to SEQ ID NO:1 (A/NewYork/55/2004 H3N2): 4
binding preference among the three tested strains (A/California/7/2009 H1N1): shifts the binding preference strongly to H1N1/2009
factor of enhanced binding capability in comparison to SEQ ID NO:1 (A/California/7/2009 H1N1): 24
IC50 [3]: 23 µM
Ki ([3]; read-out: Mean Ki(HAI)): 36.5 µM
Ki (A/Panama/2007/1999 H3N2): 0.1 µM
fold lower Ki(HAI) than the conventional peptides (SEQ ID NO:100, 101, 102) (influenza A virus): up to 1,600 fold
inhibition of fusion efficiency with erythrocyte ghosts (A/Aichi/2/68 H3N2 [4]): up to 40%
protection from infection / reduction of infectivity (A/Aichi/2/68 H3N2 [5]): up to 55%
IC50 [6]: 30 µM
IC50 (A/Aichi/2/68 H3N2 [7]; A/Aichi/2/68): 18 µM
Ki (A/Aichi/2/68 H3N2 [7]; read-out: Mean Ki(HAI)): 31.9 µM
factor of increased binding signal in comparison to SEQ ID NO:1 (A/Aichi/2/68 H3N2 (X31)): 2

SEQ ID NO:23 (FYYYDVFY; Synthetically produced peptide)
binding preference among the three tested strains (A/California/7/2009 H1N1): shifts the binding preference strongly to H1N1/2009

SEQ ID NO:33 (FYGYDVAF; Synthetically produced peptide)
relative binding preference for virus strains, in descending order [8]: H7N1 over H3N2 (X31), H3N2 (NY) and H5N1

SEQ ID NO:29 (FYYYDVFF; Synthetically produced peptide)
binding preference among the three tested strains (A/California/7/2009 H1N1): shifts the binding preference strongly to H1N1/2009

SEQ ID NO:97 (FYGYDVKF; Synthetically produced peptide)
relative binding preference for virus strains, in descending order [8]: H5N1 over H7N1, H3N2 (X31) and H3N2 (NY)

SEQ ID NO:34 (FLGYDVFF; Synthetically produced peptide)
relative binding preference for virus strains, in descending order [8]: H3N2 (NY) over H5N1, H3N2 (X31) and H7N1
